Series [1] in a line: Chemical reactivity of compound to serine in PBS at pH 7.4 by UV spectrometric assay. Format: physicochemical. Conditions: buffer; call rule not given here.
In series [2] the target is T1, Cytochrome P450 3A4 (Homo sapiens, UniProt P08684). Nature of the series: Time dependent inhibition of CYP3A4 (unknown origin) at 50 uM measured after 5 to 15 mins in presence of NADPH. Format: ADME. To be noted: time 5-15 min.
Series [3] in a line: Chemical reactivity of compound to NAC in PBS at pH 7.4 by UV spectrometric assay. It is filed as physicochemical. Conditions: buffer.
Series [4] is described as follows: Chemical reactivity of compound to NAL in PBS at pH 7.4 by UV spectrometric assay. Format: physicochemical. To be noted: buffer.
Series [5] has as its target T1, Cytochrome P450 3A4. Description: Inhibition of CYP3A4 (unknown origin) incubated for 5 to 15 mins by LC-MS/MS analysis. It is filed as ADME. Conditions: at 10 to 50 µM, dose lower 10 µM, time lower 5 min, dose upper 50 µM, time upper 15 min.
In series [6] the target is T1, Cytochrome P450 3A4. Nature of the series: Inhibition of wild type CYP3A4 (unknown origin) expressed in CHO cells using midazolam as substrate incubated for 6 hrs by LC-MS/MS analysis. It is filed as ADME, cell-based.
Another series addresses CYP2C19 (Homo sapiens, UniProt P33261). Nature of the series: Inhibition of human CYP2C19 assessed as remaining activity at 50 uM using omeprazole as substrate preincubated for 3 mins followed by substrate addition and measured upto 15 mins by LC-MS/MS analysis. To be noted: probe omeprazole, time < 18 min, read-out: Activity. Format: ADME.
The target in a further series is CYP2C9 (Homo sapiens, UniProt P11712). Nature of the series: Inhibition of human CYP2C9 assessed as remaining activity at 50 uM using diclofenac sodium as substrate preincubated for 3 mins followed by substrate addition and measured upto 15 mins by LC-MS/MS analysis. Format: ADME. Conditions: probe diclofenac sodium, time < 18 min, read-out: Activity.
Series [7] deals with T2, CYP3A4 (Homo sapiens, UniProt P08684). Description: Inhibition of CYP3A4 (unknown origin) assessed as residual activity at 50 uM incubated for 5 to 15 mins in presence of ketoconazole. Format: ADME. To be noted: with ketoconazole, time 5-15 min, read-out: Activity.
Series [8] deals with T2, CYP3A4. Nature of the series: Inhibition of CYP3A4 (unknown origin) assessed as remaining activity at 50 uM incubated for 15 mins in presence of 20 mM NAC. Format: ADME. To be noted: read-out: Activity.
Series [9] has as its target T2, CYP3A4. Description: Inhibition of human CYP3A4 assessed as remaining activity at 50 uM using testosterone as substrate preincubated for 3 mins followed by substrate addition and measured upto 15 mins by LC-MS/MS analysis (reference value: 85.4 +/- 3.42 %). It is filed as ADME. To be noted: probe testosterone, time < 18 min, read-out: Activity.
Series [10] addresses Cytochrome P450 3A4 (Homo sapiens, UniProt P08684, C239S). Description: Inhibition of CYP3A4 C239S mutant (unknown origin) expressed in CHO cells using midazolam as substrate incubated for 6 hrs by LC-MS/MS analysis. It is filed as ADME, cell-based.
Series [11] addresses T2, CYP3A4. Description: Inhibition of CYP3A4 (unknown origin) assessed as remaining activity at 50 uM incubated for 15 mins (reference value: 85 +/- 3.4%). Format: ADME. To be noted: read-out: Activity.
In the next series the target is CYP3A5 (Homo sapiens, UniProt P20815). Nature of the series: Inhibition of human CYP3A5 assessed as remaining activity at 50 uM using testosterone as substrate preincubated for 3 mins followed by substrate addition and measured upto 15 mins by LC-MS/MS analysis. Format: ADME. To be noted: probe testosterone, time < 18 min, read-out: Activity.
In the next series the target is CYP2E1 (Homo sapiens, UniProt P05181). Description: Inhibition of human CYP2E1 assessed as remaining activity at 50 uM using 4-nitrophenol as substrate preincubated for 3 mins followed by substrate addition and measured upto 15 mins by LC-MS/MS analysis. Format: ADME. To be noted: probe 4-nitrophenol, time < 18 min, read-out: Activity.
For series [12], the target named is T1, Cytochrome P450 3A4. Nature of the series: Inhibition of CYP3A4 (unknown origin) at 50 uM preincubated for 3 mins followed by NADPH addition and measured after 5 to 15 mins by LC-MS/MS analysis. Format: ADME. Conditions: time 8-18 min.
For series [13], the target named is T2, CYP3A4. Nature of the series: Inhibition of CYP3A4 (unknown origin) assessed as remaining activity at 50 uM measured 15 mins before dialysis (reference value: 87.2 +/- 2.3 %). It is filed as ADME. Conditions: read-out: Activity.
A further series concerns the target T3, CYP2A6 (Homo sapiens, UniProt P11509).
T3 sequence (P11509 whole entry): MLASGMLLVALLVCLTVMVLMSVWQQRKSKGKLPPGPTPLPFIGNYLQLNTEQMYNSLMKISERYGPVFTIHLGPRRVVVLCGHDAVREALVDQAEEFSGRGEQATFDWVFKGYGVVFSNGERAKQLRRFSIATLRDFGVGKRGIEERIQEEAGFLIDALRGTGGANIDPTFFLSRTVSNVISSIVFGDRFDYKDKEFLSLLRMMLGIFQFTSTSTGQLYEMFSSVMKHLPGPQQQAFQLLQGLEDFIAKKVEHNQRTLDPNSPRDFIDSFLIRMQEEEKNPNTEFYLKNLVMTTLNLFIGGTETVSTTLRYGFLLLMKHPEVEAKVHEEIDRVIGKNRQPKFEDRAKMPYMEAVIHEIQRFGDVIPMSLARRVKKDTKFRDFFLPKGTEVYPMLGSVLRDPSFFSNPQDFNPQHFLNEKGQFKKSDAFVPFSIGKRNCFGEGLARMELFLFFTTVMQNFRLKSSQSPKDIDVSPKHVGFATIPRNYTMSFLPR
Description: Inhibition of human CYP2A6 assessed as remaining activity at 50 uM using coumarin as substrate preincubated for 3 mins followed by substrate addition and measured upto 15 mins by LC-MS/MS analysis. To be noted: probe coumarin, time < 18 min, read-out: Activity. It is filed as ADME.

The target of series [14] is T2, CYP3A4. Description: Inhibition of CYP3A4 (unknown origin) assessed as remaining activity at 50 uM incubated for 15 mins in presence of 2 mM NAC. It is filed as ADME. Conditions: read-out: Activity.
Series [15] addresses T2, CYP3A4. Nature of the series: Inhibition of CYP3A4 (unknown origin) at 50 uM incubated for 15 mins by LC-MS/MS analysis. It is filed as ADME.
The target in series [16] is T1, Cytochrome P450 3A4. Description: Inhibition of CYP3A4 (unknown origin) at 50 uM incubated for 5 to 15 mins in absence of NADPH by LC-MS/MS analysis. It is filed as ADME. To be noted: time 5-15 min.
Series [17] deals with T2, CYP3A4. Nature of the series: Inhibition of CYP3A4 (unknown origin) assessed as remaining activity at 50 uM measured immediately (reference value: 100 %). Conditions: read-out: Activity. Format: ADME.
A further series concerns the target T4, CYP1A2 (Homo sapiens, UniProt P05177).
T4 sequence (P05177 whole entry): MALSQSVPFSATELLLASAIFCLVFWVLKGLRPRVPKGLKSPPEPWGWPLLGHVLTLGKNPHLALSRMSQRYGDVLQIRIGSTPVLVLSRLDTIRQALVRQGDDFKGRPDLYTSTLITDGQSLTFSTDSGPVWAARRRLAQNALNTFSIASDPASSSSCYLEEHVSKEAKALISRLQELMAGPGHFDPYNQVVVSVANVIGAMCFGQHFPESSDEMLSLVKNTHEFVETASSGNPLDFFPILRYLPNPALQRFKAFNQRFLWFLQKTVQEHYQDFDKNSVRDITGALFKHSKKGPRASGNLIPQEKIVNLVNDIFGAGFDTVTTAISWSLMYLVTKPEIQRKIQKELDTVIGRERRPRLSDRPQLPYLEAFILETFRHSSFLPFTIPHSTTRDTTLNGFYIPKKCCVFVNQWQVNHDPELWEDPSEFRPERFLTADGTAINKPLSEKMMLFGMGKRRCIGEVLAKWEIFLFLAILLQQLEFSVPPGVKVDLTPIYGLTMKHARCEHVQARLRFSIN
Nature of the series: Inhibition of human CYP1A2 assessed as remaining activity at 50 uM using phenacetin as substrate preincubated for 3 mins followed by substrate addition and measured upto 15 mins by LC-MS/MS analysis (reference value: 85.4 +/- 3.42 %). To be noted: probe phenacetin, time < 18 min, read-out: Activity. Format: ADME.

The target in series [18] is T2, CYP3A4. Description: Inhibition of CYP3A4 (unknown origin) assessed as remaining activity at 50 uM measured 15 mins after dialysis (reference value: 53.8 +/- 2.9 %). Format: ADME. To be noted: read-out: Activity.
In series [19] the target is T1, Cytochrome P450 3A4. Nature of the series: Inhibition of CYP3A4 (unknown origin) at 10 to 50 uM by LC-MS/MS analysis. It is filed as ADME. Conditions: TDE = time-dependent effect, dose lower 10 µM, time lower 5 min, dose upper 50 µM, time upper 15 min.
Another series deals with CYP2D6 (Homo sapiens, UniProt P10635). Description: Inhibition of human CYP2D6 assessed as remaining activity at 50 uM using dextromethorphan as substrate preincubated for 3 mins followed by substrate addition and measured upto 15 mins by LC-MS/MS analysis. It is filed as ADME. To be noted: probe dextromethorphan, time < 18 min, read-out: Activity.
A further series has as its target T5, CYP2B6 (Homo sapiens, UniProt P20813).
T5 sequence (P20813 whole entry): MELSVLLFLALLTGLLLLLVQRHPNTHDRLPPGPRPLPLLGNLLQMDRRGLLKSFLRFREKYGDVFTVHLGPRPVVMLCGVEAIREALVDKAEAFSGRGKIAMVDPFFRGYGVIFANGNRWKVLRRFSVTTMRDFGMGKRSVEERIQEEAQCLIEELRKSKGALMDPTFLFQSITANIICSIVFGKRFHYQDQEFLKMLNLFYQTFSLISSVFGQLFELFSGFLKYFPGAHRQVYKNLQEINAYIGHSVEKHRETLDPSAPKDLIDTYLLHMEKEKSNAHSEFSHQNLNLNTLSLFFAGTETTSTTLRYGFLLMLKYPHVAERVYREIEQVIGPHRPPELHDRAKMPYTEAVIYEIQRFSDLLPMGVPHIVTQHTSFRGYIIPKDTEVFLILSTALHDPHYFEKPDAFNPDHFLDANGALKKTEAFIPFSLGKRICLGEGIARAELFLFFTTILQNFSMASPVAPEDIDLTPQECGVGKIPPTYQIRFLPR
Description: Inhibition of human CYP2B6 assessed as remaining activity at 50 uM using bupropion.HCl as substrate preincubated for 3 mins followed by substrate addition and measured upto 15 mins by LC-MS/MS analysis. To be noted: buffer, probe bupropion.HCl, time < 18 min, read-out: Activity. It is filed as ADME.

Series [20] has as its target T1, Cytochrome P450 3A4. Description: Time dependent inhibition of CYP3A4 (unknown origin) at 50 uM measured after 5 to 15 mins. Format: ADME. To be noted: time 5-15 min.

SMILES strings stand for the structures. Bounds are passed on as bounds.

T1 sequence (P08684 whole entry): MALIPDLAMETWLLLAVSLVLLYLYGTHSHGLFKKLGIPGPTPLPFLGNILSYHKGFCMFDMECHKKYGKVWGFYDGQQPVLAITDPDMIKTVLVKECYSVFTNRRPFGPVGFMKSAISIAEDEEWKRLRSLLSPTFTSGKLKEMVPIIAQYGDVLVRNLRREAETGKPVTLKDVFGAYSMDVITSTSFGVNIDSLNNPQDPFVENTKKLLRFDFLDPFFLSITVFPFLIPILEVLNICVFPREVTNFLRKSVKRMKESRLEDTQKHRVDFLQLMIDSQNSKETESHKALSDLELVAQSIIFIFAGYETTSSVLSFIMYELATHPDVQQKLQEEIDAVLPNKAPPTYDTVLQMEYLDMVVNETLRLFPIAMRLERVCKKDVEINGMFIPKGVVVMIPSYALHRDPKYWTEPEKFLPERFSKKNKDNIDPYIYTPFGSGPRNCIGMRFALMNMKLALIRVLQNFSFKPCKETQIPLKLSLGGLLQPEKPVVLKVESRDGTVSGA
T2 sequence (P08684 whole entry): as above
Chain of CYP2C19 (P33261 whole entry): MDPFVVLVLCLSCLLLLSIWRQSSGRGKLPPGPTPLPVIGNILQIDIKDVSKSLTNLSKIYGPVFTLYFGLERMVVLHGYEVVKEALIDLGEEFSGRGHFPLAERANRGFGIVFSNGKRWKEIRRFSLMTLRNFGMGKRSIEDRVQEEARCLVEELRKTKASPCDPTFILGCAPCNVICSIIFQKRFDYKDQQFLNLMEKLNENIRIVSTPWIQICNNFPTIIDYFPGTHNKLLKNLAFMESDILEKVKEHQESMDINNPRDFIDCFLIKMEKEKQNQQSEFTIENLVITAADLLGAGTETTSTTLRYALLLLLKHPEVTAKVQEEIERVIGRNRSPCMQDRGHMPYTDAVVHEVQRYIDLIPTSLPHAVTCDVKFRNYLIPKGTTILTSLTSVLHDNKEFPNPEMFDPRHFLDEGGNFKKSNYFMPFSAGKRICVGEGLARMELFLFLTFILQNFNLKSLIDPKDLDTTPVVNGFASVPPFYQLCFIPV
Chain of CYP2C9 (P11712 whole entry): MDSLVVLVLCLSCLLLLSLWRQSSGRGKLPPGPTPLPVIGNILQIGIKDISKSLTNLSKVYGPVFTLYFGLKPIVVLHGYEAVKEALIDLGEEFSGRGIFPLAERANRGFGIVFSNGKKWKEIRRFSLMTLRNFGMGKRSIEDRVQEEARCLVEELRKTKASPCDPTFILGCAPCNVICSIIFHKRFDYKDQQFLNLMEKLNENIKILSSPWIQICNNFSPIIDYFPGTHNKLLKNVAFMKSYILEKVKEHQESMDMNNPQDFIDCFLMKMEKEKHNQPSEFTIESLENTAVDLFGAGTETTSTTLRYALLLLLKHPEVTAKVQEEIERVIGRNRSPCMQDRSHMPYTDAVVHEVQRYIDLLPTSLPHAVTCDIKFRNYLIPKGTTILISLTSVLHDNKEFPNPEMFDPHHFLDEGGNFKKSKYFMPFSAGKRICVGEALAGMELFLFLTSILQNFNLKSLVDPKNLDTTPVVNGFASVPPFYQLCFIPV
Chain of CYP2D6 (P10635 whole entry): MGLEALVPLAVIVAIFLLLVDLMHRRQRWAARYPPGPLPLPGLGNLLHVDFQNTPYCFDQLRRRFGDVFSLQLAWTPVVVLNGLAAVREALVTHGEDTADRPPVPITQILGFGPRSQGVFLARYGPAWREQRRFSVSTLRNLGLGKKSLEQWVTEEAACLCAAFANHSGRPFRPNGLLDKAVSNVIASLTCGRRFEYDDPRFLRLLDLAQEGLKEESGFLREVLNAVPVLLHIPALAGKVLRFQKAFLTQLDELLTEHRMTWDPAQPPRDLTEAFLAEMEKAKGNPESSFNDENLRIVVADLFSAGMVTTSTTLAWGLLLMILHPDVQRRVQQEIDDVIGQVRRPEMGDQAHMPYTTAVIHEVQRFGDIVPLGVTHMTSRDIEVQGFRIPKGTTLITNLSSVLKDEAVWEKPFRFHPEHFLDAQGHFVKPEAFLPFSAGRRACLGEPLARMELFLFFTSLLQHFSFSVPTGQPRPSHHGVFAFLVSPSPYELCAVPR
Chain of Cytochrome P450 3A4 (Homo sapiens, UniProt P08684, C239S) (P08684 2-503 C239S limits assumed): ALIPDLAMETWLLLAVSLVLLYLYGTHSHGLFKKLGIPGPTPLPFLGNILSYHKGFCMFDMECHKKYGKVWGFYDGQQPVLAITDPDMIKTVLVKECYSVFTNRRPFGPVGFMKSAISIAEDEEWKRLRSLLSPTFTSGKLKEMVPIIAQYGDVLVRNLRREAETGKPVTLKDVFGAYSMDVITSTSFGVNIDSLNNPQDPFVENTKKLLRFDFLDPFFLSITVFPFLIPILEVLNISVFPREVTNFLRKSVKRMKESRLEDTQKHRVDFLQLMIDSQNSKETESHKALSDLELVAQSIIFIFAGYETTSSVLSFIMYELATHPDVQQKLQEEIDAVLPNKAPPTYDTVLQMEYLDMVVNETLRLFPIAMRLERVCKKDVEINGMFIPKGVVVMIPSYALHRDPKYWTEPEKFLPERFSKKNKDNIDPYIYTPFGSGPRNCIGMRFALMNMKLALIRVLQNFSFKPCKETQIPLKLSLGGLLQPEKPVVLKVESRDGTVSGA
Chain of CYP3A5 (P20815 whole entry): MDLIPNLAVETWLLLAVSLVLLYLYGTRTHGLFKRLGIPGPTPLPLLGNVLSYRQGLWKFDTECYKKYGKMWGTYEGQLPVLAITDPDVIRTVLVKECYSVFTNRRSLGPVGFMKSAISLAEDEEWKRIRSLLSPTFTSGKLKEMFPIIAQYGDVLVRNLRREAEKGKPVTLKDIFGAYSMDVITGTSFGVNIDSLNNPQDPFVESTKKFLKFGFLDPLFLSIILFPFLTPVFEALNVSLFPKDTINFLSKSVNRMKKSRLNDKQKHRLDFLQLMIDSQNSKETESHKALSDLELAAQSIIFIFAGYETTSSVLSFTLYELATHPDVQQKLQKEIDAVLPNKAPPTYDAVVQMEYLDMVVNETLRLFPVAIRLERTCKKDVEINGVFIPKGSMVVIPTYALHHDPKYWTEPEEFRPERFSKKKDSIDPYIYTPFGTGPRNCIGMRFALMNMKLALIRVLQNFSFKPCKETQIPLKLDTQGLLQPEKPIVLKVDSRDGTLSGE
Chain of CYP2E1 (P05181 whole entry): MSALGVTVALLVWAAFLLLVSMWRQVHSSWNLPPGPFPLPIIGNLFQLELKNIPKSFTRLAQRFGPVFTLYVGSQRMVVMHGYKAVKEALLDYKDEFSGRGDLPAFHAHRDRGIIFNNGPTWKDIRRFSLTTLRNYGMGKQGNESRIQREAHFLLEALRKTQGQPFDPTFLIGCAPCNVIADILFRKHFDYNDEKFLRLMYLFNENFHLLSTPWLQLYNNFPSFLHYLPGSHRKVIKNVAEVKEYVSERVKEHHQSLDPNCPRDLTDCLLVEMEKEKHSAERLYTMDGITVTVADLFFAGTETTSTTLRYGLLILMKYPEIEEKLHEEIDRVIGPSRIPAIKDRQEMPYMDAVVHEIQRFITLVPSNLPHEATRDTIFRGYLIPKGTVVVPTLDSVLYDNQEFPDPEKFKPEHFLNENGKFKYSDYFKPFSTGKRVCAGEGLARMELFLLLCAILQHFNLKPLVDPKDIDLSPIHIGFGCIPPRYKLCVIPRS

For `COc1cc2c[n+](C)c3c4cc5c(cc4ccc3c2cc1OC)OCO5.[Cl-]` [NITIDINE CHLORIDE], the Drug metabolism result in series [1], in [3] and in [4] was “Metabolite_Notdetected” in each case. At Cytochrome P450 3A4 [2], the TDI entry is given as “Active”.
Consider `COc1ccc2c(c[n+](C)c3c4cc5c(cc4ccc23)OCO5)c1OC.[Cl-]` [CHELERYTHRINE CHLORIDE], for which the Drug metabolism result in series [1] is reported as “Metabolite_Notdetected”; in series [3], “Metabolite_Detected”; in [4], “Metabolite_Notdetected”. Also, the “inhibition (INH)” value is “Dose-Dependent Effect” against Cytochrome P450 3A4 [5]; “Active” against Cytochrome P450 3A4 [6]; “Not Active” against Cytochrome P450 3A4 [10]; “Active” on Cytochrome P450 3A4 [12]; “Active” against Cytochrome P450 3A4 [16]; “Tde” against Cytochrome P450 3A4 [19]. The activity at 0.25 h, 50 µM was more than 50% on CYP2C19; more than 50% at CYP2C9; 85.9% on CYP3A4 [8]; 26.3% on CYP3A4 [9]; 26% at CYP3A4 [11]; more than 50% at CYP3A5. For the same compound, the activity at 0.25 h, 50 µM on CYP2E1 is more than 50%; on CYP3A4 [13] it was 43.8%; at CYP2A6 it was more than 50%; on CYP3A4 [14], 49.9%; at CYP1A2, more than 50%; at CYP3A4 [18], 25.1%. The activity at 0.25 h, 50 µM on CYP2D6 and at CYP2B6 was more than 50% throughout. For the same compound, the activity at 50 µM at CYP3A4 [7] was determined as 50%. For the same compound, the inhibition (as a rule, the relative decrease from the control value, in per cent) at 0.25 h, 50 µM at CYP3A4 [15] worked out at 75%. Besides, on CYP3A4 [17], the activity at 0 min, 50 µM amounted to 70.7%.
Regarding `COc1ccc2c(c1OC)CN(C)c1c-2ccc2cc3c(cc12)OCO3` [DIHYDROCHELERYTHRINE], on Cytochrome P450 3A4 [20], the TDI result is “Not Active”.
